Our source for the EC50 values is patent US12534458B2, “Spiropiperidine allosteric modulators of nicotinic acetylcholine receptors” (Merck Sharp & Dohme LLC, priority 2019, dated 2026).

SMILES strings stand for the structures.

In the test the target is human α7 nAChR (Homo sapiens (Human), UniProt P36544). Briefly: Automated patch-clamp electrophysiology functional assay (Assay A). It is filed as cell-based. The settings on record: IonFlux HT whole-cell population patch, HEK cell line stably expressing human RIC-3 and human α7, 40 μM acetylcholine. As to the method: The α7 nAChR positive allosteric modulator (PAM) activity of the present compounds may be tested using assays known in the art. The α7 nAChR PAMs described herein have activities in an automated patch-clamp electrophysiology functional assay as described in the examples. The assay was performed using the IonFlux HT in a whole-cell, population patch configuration. See Golden et al. Assay Drug Dev. Technol. (2011) 9:608-619. The compounds were assessed for their ability to modulate the function of the human α7 nAChR stably expressed in a HEK cell line both in the presence, and in the absence of the natural α7 agonist acetylcholine. By performing a series of such measurements at different concentrations, the effective concentration of the α7 nAChR PAMs (EC50) was determined. See Spencer et al. Assay Drug Dev. Technol. (2012) 10:313-324.
Sequence of human α7 nAChR (P36544 23-502): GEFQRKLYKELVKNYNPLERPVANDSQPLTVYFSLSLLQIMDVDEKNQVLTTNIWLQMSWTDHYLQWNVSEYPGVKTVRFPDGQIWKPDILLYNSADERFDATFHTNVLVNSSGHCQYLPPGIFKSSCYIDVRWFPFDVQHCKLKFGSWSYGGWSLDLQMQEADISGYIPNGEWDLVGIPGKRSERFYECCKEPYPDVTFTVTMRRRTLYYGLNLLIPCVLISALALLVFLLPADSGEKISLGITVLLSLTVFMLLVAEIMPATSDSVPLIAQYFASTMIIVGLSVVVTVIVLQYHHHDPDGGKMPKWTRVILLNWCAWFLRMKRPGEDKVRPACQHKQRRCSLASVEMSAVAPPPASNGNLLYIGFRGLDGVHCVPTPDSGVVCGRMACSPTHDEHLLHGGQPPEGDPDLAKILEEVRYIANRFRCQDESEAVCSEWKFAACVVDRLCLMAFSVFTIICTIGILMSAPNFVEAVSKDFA
Direct activation of α7 (agonism), and potentiation of acetylcholine-evoked α7 currents was determined as follows:
Automated patch-clamp electrophysiology was performed using the IonFlux HT (Fluxion Biosciences Inc., San Francisco, CA) in the whole-cell, population patch configuration. Test compounds were assessed for their ability to modulate the function of the α7 nicotinic acetylcholine receptor both in the presence, and in the absence of the natural α7 agonist acetylcholine. A HEK cell line stably expressing both human RIC-3 and human α7 (PrecisION hnAChR α7/RIC-3, Eurofins Pharma, St. Charles, MO) was cultured in 175 cm^2 triple-layer tissue culture flasks to no more than 90% confluency in DMEM/F-12 growth media supplemented with 10% heat-inactivated fetal bovine serum, 1% non-essential amino acids, 0.625 μg/mL Puromycin, and 400 μg/mL Geneticin. Immediately prior to assay, cells were detached by first aspirating growth media, rinsing with Dulbecco's phosphate buffered saline, and then adding 10 mL of Accutase (Innovative Cell Technologies, San Diego, CA) to the flask and then incubating at 37° C. for 5 minutes. Detached cells were then recovered by the addition of 40 mL of CHO-serum-free media supplemented with 25 mM HEPES, and rocked gently in a 50 mL conical tube for 20 minutes prior to patch-clamp assay. After recovery, cells were pelleted by centrifugation at 1,000 RPM for 1 minute in a compact bench top centrifuge; recovery media was aspirated and cells were resuspended in external recording solution (150 mM NaCl, 5 mM KCl, 2 mM CaCl2), 1 mM MgCl2, 10 mM HEPES, 12 mM dextrose) to a density of 5.0×10^6 cells/mL. The cell suspension was added to the cell inlet wells on an IonFlux HT population patch plate which had previously been rinsed and primed with deionized H2O. Test compounds were serially diluted in DMSO and then resuspended to the final test concentration in external recording solution, with, or without 40 μM acetylcholine added to the external recording solution; test compounds were then transferred to the IonFlux HT population patch plate. Internal recording solution (110 mM TrisPO4, 28 mM TrisBase, 0.1 mM CaCl2), 2 mM MgCl2, 11 mM EGTA, 4 mM MgATP) was added to the internal recording solution inlet wells on the IonFlux HT patch plate previously loaded with cells and test compounds, and the plate loaded into the IonFlux HT instrument. A protocol was executed on the IonFlux HT to trap the cells, break into the cells, and establish the whole-cell recording configuration; cells were voltage-clamped at a holding potential of −60 mV for the duration of the experiment, all experiments were conducted at room temperature, and the IonFlux HT injection pressure was 8 psi for solution applications. Upon establishing the whole-cell configuration, external recording solution was perfused into the recording chambers for 120 seconds and then 40 μM acetylcholine was applied for 1 second and immediately washed off with external recording solution for 60 seconds. […]
(In general: The patch-clamp technique gives a direct electrical read-out from membranes.)
On to `NS(=O)(=O)N1CCC2(CC1)C(c1cccc(-c3cccc(C(F)(F)F)c3)c1)C2(F)F` (racemic) [Example C1, 1,1-Difluoro-2-[3′-(trifluoromethyl)biphenyl-3-yl]-6-azaspiro[2.5]octane-6-sulfonamide], for which the EC50 – broadly, the concentration that produces a half-maximal response – turned out to be 430 nM.
Then `NS(=O)(=O)N1CCC2(CC1)C(c1cccc(-c3conc3C3CC3)n1)C2(F)F` (single isomer, unassigned) [Example C2, 2-[6-(3-Cyclopropylisoxazol-4-yl)pyridin-2-yl]-1,1-difluoro-6-azaspiro[2.5]octane-6-sulfonamide], with 850 nM; and `NS(=O)(=O)N1CCC2(CC1)C[C@H]2c1nc2ccccc2s1` [Example 1, (1R)-1-(1,3-Benzothiazol-2-yl)-6-azaspiro[2.5]octane-6-sulfonamide], with 930 nM.
`NS(=O)(=O)N1CCC2(CC1)C(c1cccc(-c3ccccc3)n1)C2(F)F` (stereo not shown) [Example 2, 1,1-Difluoro-2-(6-phenylpyridin-2-yl)-6-azaspiro[2.5]octane-6-sulfonamide]: the EC50 was 1600 nM.
As for `NS(=O)(=O)N1CCC2(CC1)CC2c1cccc(-c2ccccc2)n1` (stereo not shown) [Example 3, 1-(6-Phenylpyridin-2-yl)-6-azaspiro[2.5]octane-6-sulfonamide], the EC50 amounted to 3000 nM.
To `NS(=O)(=O)N1CCC2(CC1)[C@H](c1nccc(-c3ccccc3)n1)C2(F)F` [Example 4, (2R)-1,1-Difluoro-2-(4-phenylpyrimidin-2-yl)-6-azaspiro[2.5]octane-6-sulfonamide] belongs 1900 nM; to `NS(=O)(=O)N1CCC2(CC1)[C@H](c1cccc(-c3ccc(C(F)(F)F)cc3)n1)C2(F)F` [Example 5, (2R)-1,1-Difluoro-2-{6-[4-(trifluoromethyl)phenyl]pyridin-2-yl}-6-azaspiro[2.5]octane-6-sulfonamide], 340 nM; to `Cc1ccccc1-c1cccc([C@@H]2C(F)(F)C23CCN(S(N)(=O)=O)CC3)n1` [Example 6, (2R)-1,1-Difluoro-2-[6-(2-methylphenyl)pyridin-2-yl]-6-azaspiro[2.5]octane-6-sulfonamide], 2200 nM.
To `NS(=O)(=O)N1CCC2(CC1)[C@H](c1cc(-c3ccccc3)ccn1)C2(F)F` [Example A1, (2R)-1,1-Difluoro-2-(4-phenylpyridin-2-yl)-6-azaspiro[2.5]octane-6-sulfonamide] belongs 190 nM; to `NS(=O)(=O)N1CCC2(CC1)[C@H](c1cccc(-c3ccccc3C3CC3)n1)C2(F)F` [Example A2, (2R)-2-[6-(2-Cyclopropylphenyl)pyridin-2-yl]-1,1-difluoro-6-azaspiro[2.5]octane-6-sulfonamide], 830 nM; to `NS(=O)(=O)N1CCC2(CC1)[C@H](c1nc3ccccc3o1)C2(F)F` [Example A3, (2R)-2-(1,3-Benzoxazol-2-yl)-1,1-difluoro-6-azaspiro[2.5]octane-6-sulfonamide], 1000 nM.
Regarding `NS(=O)(=O)N1CCC2(CC1)[C@@H](c1cccc(-c3ccc(C(F)(F)F)cc3)n1)C2(F)F` [Example B1, (2S)-1,1-Difluoro-2-{6-[4-(trifluoromethyl)phenyl]pyridin-2-yl}-6-azaspiro[2.5]octane-6-sulfonamide], the EC50 was found to be 4400 nM.
Then `NS(=O)(=O)N1CCC2(CC1)[C@@H](c1cc(-c3ccccc3)ccn1)C2(F)F` [Example B2, (2S)-1,1-Difluoro-2-(4-phenylpyridin-2-yl)-6-azaspiro[2.5]octane-6-sulfonamide], with 1700 nM.
